53 compounds from ChEMBL document CHEMBL1140932, “Toward optimization of the second aryl substructure common to transthyretin amyloidogenesis inhibitors using biochemical and structural studies” (J Med Chem, 2009) can be followed below.

The inhibition is the change of the read-out against control, counted positive when it falls.

Test [1] concerns the target Transthyretin (Homo sapiens) (UniProt P02766). The test is described as follows: Inhibition of wild type TTR aggregation expressed in Escherichia coli assessed as fibril formation at 7.2 uM after 72 hrs relative to untreated-control.
Test [2] deals with Prostaglandin G/H synthase 1 (Homo sapiens) (UniProt P23219). The test is described as follows: Inhibition of COX1 assessed as inhibition of arachidonic acid conversion to prostaglandin-E2 release at 10 uM.
Chain of Prostaglandin G/H synthase 1 (Homo sapiens) (P23219 whole entry): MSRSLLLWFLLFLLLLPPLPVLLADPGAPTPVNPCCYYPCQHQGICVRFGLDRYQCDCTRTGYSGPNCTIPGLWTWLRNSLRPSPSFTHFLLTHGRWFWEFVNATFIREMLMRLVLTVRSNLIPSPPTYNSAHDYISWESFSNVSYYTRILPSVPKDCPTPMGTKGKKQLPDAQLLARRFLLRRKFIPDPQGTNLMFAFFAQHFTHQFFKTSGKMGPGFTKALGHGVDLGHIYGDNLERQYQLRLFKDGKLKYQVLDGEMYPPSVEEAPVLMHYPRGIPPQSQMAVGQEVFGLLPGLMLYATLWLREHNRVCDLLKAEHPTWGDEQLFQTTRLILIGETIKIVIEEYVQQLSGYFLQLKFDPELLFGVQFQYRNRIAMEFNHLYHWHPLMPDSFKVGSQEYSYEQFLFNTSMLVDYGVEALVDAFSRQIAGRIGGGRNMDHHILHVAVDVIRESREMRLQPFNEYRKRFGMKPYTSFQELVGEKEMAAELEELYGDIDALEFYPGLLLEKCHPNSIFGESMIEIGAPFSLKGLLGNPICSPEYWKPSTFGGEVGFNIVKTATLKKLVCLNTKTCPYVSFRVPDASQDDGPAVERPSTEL
For test [3], the target named is Transthyretin (Homo sapiens) (UniProt P02766). Nature of the test: Binding affinity to TTR in human plasma assessed as binding stoichiometry at 10.8 uM after 24 hrs under dark condition by RP-HPLC based antibody capture method. Type of test: cell-free.
The nature of test [4]: Displacement of [125I]triiodothyronine from thyroid hormone receptor at 10 uM by scintillation counting. On the technique in general: Displacement assays read how much labelled ligand stays bound in the presence of the test substance.

For `O=C(Nc1cc(Br)c(O)c(Br)c1)c1cc(C(F)(F)F)cc(C(F)(F)F)c1`, in test [1], the inhibition amounted to 70%.

`O=C(Nc1cc(Br)c(O)c(Br)c1)c1cc(Cl)cc(Cl)c1`: the inhibition in test [2] was < 5%; in test [1], 2%; in test [4] it was 3%. Moreover, the Activity in test [3] was determined as 1.39.

On to `Cc1cc(C(=O)Nc2cc(Br)c(O)c(Br)c2)cc(C)c1O`, for which the inhibition in test [2] was < 5%; in test [1] it was 3%; in test [4] it was 5%. Moreover, the Activity in test [3] came to 1.7.

As for `O=C(Nc1cc(Br)c(O)c(Br)c1)c1cc(C(F)(F)F)ccc1C(F)(F)F`, the inhibition in test [2] was < 5%; in test [1] it was 5%; in test [4], 2%. In addition, in test [3], the Activity came out at 1.62.

As to `Cc1cc(C)cc(C(=O)Nc2cc(Br)c(O)c(Br)c2)c1`, the inhibition was < 5% in test [2], 4% in test [1] and 4% in test [4]. For the same compound, the Activity in test [3] is 1.3.

In the case of `O=C(Nc1cc(Br)c(O)c(Br)c1)c1ccc(F)cc1`, in test [1], the inhibition is 45%.

In the case of `Cc1ccccc1C(=O)Nc1cc(Br)c(O)c(Br)c1`, the inhibition in test [2] was < 5%; in test [1], 2%; in test [4], 1%. In addition, in test [3], the Activity turned out to be 1.56.

Consider `O=C(Nc1cc(Br)c(O)c(Br)c1)c1ccccc1F`, for which the figures for the inhibition in test [2], in test [1] and in test [4] were < 5%, 2% and 0%, respectively. Moreover, the Activity in test [3] came to 1.39.

For the compound `Nc1ccc(C(=O)Nc2cc(Br)c(O)c(Br)c2)cc1`, the inhibition in test [1] turned out to be 27%.

As to `O=C(Nc1cc(Br)c(O)c(Br)c1)c1ccccc1Cl`, the inhibition is < 5% in test [2], 2% in test [1] and 3% in test [4]. In addition, the Activity in test [3] was 1.48.

Regarding `COc1cccc(C(=O)Nc2cc(Br)c(O)c(Br)c2)c1`, the inhibition in test [1] came to 29%.

In the case of `O=C(Nc1cc(Br)c(O)c(Br)c1)c1cc(F)cc(F)c1`, the figures for the inhibition in test [2], in test [1] and in test [4] were < 5%, 10% and 28%, respectively. Also, in test [3], the Activity stood at 1.02.

As to `O=C(Nc1cc(Br)c(O)c(Br)c1)c1cc(Br)ccc1Br`, the inhibition is < 5% in test [2], 1% in test [1] and 0% in test [4]. Further, the Activity in test [3] turned out to be 1.4.

In the case of `O=C(Nc1cc(Br)c(O)c(Br)c1)c1ccc([N+](=O)[O-])cc1`, the inhibition in test [1] came to 50%.

In the case of `COc1c(Br)cc(C(=O)Nc2cc(Br)c(O)c(Br)c2)cc1Br`, the inhibition in test [2] amounted to 23%; in test [1], 10%; in test [4], 0%. Also, in test [3], the Activity amounted to 1.13.

For `Cc1ccc(C)c(C(=O)Nc2cc(Br)c(O)c(Br)c2)c1`, the values for the inhibition in test [2], in test [1] and in test [4] were < 5%, 1% and 1%, respectively. Further, in test [3], the Activity was 1.46.

As for `O=C(Nc1cc(Br)c(O)c(Br)c1)c1c(F)cccc1F`, the inhibition was < 5% in test [2], 3% in test [1] and 7% in test [4]. In test [3], the Activity worked out at 1.69.

For `Cc1ccc(C(=O)Nc2cc(Br)c(O)c(Br)c2)cc1`, the inhibition in test [1] stood at 49%.

Consider `COc1ccccc1C(=O)Nc1cc(Br)c(O)c(Br)c1`, for which the figures for the inhibition in test [2], in test [1] and in test [4] were < 5%, 2% and 3%, respectively. In addition, the Activity in test [3] was found to be 1.88.

On to `O=C(Nc1cc(Br)c(O)c(Br)c1)c1cccc(Br)c1`, for which the inhibition in test [2] was < 5%; in test [1] it was 8%; in test [4], 6%. Further, the Activity in test [3] worked out at 0.95.

For the compound `O=C(Nc1cc(Br)c(O)c(Br)c1)c1cccc(F)c1`, the inhibition in test [2] was < 5%; in test [1], 13%; in test [4], 3%. Further, the Activity in test [3] came to 0.68.

For the compound `O=C(Nc1cc(Br)c(O)c(Br)c1)c1ccc(C(F)(F)F)cc1`, in test [1], the inhibition is 83%.

Consider `COc1cccc(OC)c1C(=O)Nc1cc(Br)c(O)c(Br)c1`, for which the inhibition in test [2] was < 5%; in test [1] it was 3%; in test [4], 1%. The Activity in test [3] worked out at 0.62.

In the case of `O=C(Nc1cc(Br)c(O)c(Br)c1)c1ccc(Cl)cc1`, the inhibition in test [1] is 53%.

`O=C(Nc1cc(Br)c(O)c(Br)c1)c1cc(Br)cc(Br)c1`: the inhibition is < 5% in test [2], 5% in test [1] and 6% in test [4]. Also, the Activity in test [3] is 1.29.

In the case of `Nc1ccccc1C(=O)Nc1cc(Br)c(O)c(Br)c1`, the inhibition in test [2] is < 5%; in test [1], 3%; in test [4] it was 6%. For the same compound, the Activity in test [3] was 1.58.

Regarding `O=C(Nc1cc(Br)c(O)c(Br)c1)c1ccc(O)cc1`, the inhibition in test [2] was < 5%; in test [1], 21%; in test [4], 8%. For the same compound, in test [3], the Activity came to 1.33.

As to `O=C(O)c1ccc(C(=O)Nc2cc(Br)c(O)c(Br)c2)cc1`, the inhibition in test [2] is < 5%; in test [1], 11%; in test [4], 2%. Further, the Activity in test [3] came to 0.49.

For the compound `O=C(Nc1cc(Br)c(O)c(Br)c1)c1cc(O)cc(O)c1`, the inhibition in test [2] is < 5%; in test [1], 4%; in test [4], 0%. Moreover, in test [3], the Activity turned out to be 1.56.

In the case of `O=C(Nc1cc(Br)c(O)c(Br)c1)c1cc(Cl)c(O)c(Cl)c1`, the figures for the inhibition in test [2], in test [1] and in test [4] were < 5%, 3% and 0%, respectively. For the same compound, in test [3], the Activity is 0.94.

Consider `O=C(Nc1cc(Br)c(O)c(Br)c1)c1cc(Br)c(O)c(Br)c1`, for which the values for the inhibition in test [2], in test [1] and in test [4] were < 5%, 2% and 0%, respectively. The Activity in test [3] turned out to be 0.87.

On to `O=C(Nc1cc(Br)c(O)c(Br)c1)c1cc(F)c(O)c(F)c1`, for which the inhibition in test [2] is < 5%; in test [1] it was 4%; in test [4], 21%. Further, in test [3], the Activity stood at 1.11.

As for `COc1ccc(OC)c(C(=O)Nc2cc(Br)c(O)c(Br)c2)c1`, the figures for the inhibition in test [2], in test [1] and in test [4] were < 5%, 1% and 1%, respectively. In addition, the Activity in test [3] turned out to be 1.57.

Turning to `O=C(Nc1cc(Br)c(O)c(Br)c1)c1cccc(Cl)c1`, the results for the inhibition in test [2], in test [1] and in test [4] were < 5%, 8% and 5%, respectively. The Activity in test [3] was determined as 1.09.

As to `Cc1cccc(C(=O)Nc2cc(Br)c(O)c(Br)c2)c1`, the inhibition is < 5% in test [2], 12% in test [1] and 2% in test [4]. Moreover, the Activity in test [3] stood at 0.85.

Turning to `O=C(Nc1cc(Br)c(O)c(Br)c1)c1cc(F)ccc1F`, the results for the inhibition in test [2], in test [1] and in test [4] were < 5%, 0% and 0%, respectively. Further, in test [3], the Activity was 1.73.

Take `O=C(Nc1cc(Br)c(O)c(Br)c1)c1cccc(C(F)(F)F)c1`: the inhibition in test [1] stood at 37%.

Turning to `O=C(O)c1cccc(C(=O)Nc2cc(Br)c(O)c(Br)c2)c1`, the inhibition stood at 17% in test [2], 11% in test [1] and 0% in test [4]. Also, the Activity in test [3] is 0.16.

In the case of `COc1c(Cl)cc(C(=O)Nc2cc(Br)c(O)c(Br)c2)cc1Cl`, the inhibition is < 5% in test [2], 9% in test [1] and 10% in test [4]. The Activity in test [3] turned out to be 1.48.

As to `COc1c(F)cc(C(=O)Nc2cc(Br)c(O)c(Br)c2)cc1F`, the inhibition in test [1] was determined as 45%.

With `O=C(O)c1ccccc1C(=O)Nc1cc(Br)c(O)c(Br)c1`, the inhibition in test [1] turned out to be 64%.

Turning to `COc1cc(OC)cc(C(=O)Nc2cc(Br)c(O)c(Br)c2)c1`, the inhibition in test [2] is < 5%; in test [1] it was 24%; in test [4], 0%. Also, the Activity in test [3] is 0.05.

As for `COc1c(C)cc(C(=O)Nc2cc(Br)c(O)c(Br)c2)cc1C`, in test [1], the inhibition stood at 36%.

In the case of `O=C(Nc1cc(Br)c(O)c(Br)c1)c1cccc([N+](=O)[O-])c1`, the inhibition in test [1] was 34%.

With `O=C(Nc1cc(Br)c(O)c(Br)c1)c1ccccc1C(F)(F)F`, the inhibition is < 5% in test [2], 1% in test [1] and 7% in test [4]. Also, the Activity in test [3] is 1.62.

Regarding `Nc1cccc(C(=O)Nc2cc(Br)c(O)c(Br)c2)c1`, the inhibition in test [2] is < 5%; in test [1], 25%; in test [4], 0%. For the same compound, the Activity in test [3] is 1.21.

As to `O=C(Nc1cc(Br)c(O)c(Br)c1)c1ccc(Br)cc1`, the inhibition in test [1] was determined as 53%.

As for `COc1ccc(C(=O)Nc2cc(Br)c(O)c(Br)c2)cc1`, the inhibition in test [1] turned out to be 54%.

Regarding `O=C(Nc1cc(Br)c(O)c(Br)c1)c1ccccc1O`, the results for the inhibition in test [2], in test [1] and in test [4] were < 5%, 2% and 11%, respectively. For the same compound, the Activity in test [3] was 1.14.

Turning to `O=C(Nc1cc(Br)c(O)c(Br)c1)c1ccccc1Br`, the inhibition in test [2] was < 5%; in test [1], 1%; in test [4] it was 8%. Also, the Activity in test [3] is 1.56.

In the case of `O=C(Nc1cc(Br)c(O)c(Br)c1)c1ccccc1`, the values for the inhibition in test [2] and in test [1] were < 5% and 26%, respectively. The Activity in test [3] came to 0.41; in test [4] it was 0%.

Turning to `O=C(Nc1cc(Br)c(O)c(Br)c1)c1c(Cl)cccc1Cl`, the inhibition in test [2] is < 5%; in test [1], 1%; in test [4], 3%. Moreover, the Activity in test [3] was determined as 1.67.

As to `O=C(Nc1cc(Br)c(O)c(Br)c1)c1cc(O)ccc1O`, the figures for the inhibition in test [2], in test [1] and in test [4] were < 5%, 1% and 13%, respectively. Moreover, in test [3], the Activity was determined as 1.01.
